Data on five compounds can be found in patent publication US8946142B2, “Beta-arrestin effectors and compositions and methods of use thereof” (Trevena, Inc., priority 2012, dated 2015).

Structures are written as SMILES. Where a SMILES comes first, the peptide text is derived from it. [ ]: non-standard residue; d: D form. Ac6c = NC1(C(=O)O)CCCCC1; Ac5c = NC1(C(=O)O)CCCC1; Sar = CNCC(=O)O

What all share (type): cell-based
Experiment [1] has as its target T1, human AT1R (Homo sapiens, UniProt P30556).
T1 sequence (P30556 1-359): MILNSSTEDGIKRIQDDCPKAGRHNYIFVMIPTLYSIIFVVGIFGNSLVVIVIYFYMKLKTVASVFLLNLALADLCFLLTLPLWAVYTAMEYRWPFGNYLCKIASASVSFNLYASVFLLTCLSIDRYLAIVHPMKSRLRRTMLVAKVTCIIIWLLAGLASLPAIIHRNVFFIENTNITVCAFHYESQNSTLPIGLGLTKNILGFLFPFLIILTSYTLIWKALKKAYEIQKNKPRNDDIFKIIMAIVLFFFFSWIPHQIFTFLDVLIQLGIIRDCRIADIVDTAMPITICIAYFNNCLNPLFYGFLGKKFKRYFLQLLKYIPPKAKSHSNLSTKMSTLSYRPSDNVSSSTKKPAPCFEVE
The experiment can be described thus: beta-arrestin2 recruitment assay (PathHunter), human AT1R. The settings on record: for Emax: 1 h, read-out: Span (relative to hAngII). In a few lines:
(§1)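 PathHunter enzyme-complementation assay in HEK293 cells stably expressing ProLink-tagged human AT1R or rat AT1aR; peptides (final 100 μM–1 pM) in HBSS/20 mM HEPES for 60 min at 37 °C. Detection reagent 60 min at room temperature; β-arrestin-2 recruitment read as relative luminescence.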
(Activated receptors often draw arrestin, which recruitment assays turn into a signal.)

Experiment [2] concerns the target T2, rat AT1aR (Rattus norvegicus, UniProt P25095).
T2 sequence (P25095 1-359): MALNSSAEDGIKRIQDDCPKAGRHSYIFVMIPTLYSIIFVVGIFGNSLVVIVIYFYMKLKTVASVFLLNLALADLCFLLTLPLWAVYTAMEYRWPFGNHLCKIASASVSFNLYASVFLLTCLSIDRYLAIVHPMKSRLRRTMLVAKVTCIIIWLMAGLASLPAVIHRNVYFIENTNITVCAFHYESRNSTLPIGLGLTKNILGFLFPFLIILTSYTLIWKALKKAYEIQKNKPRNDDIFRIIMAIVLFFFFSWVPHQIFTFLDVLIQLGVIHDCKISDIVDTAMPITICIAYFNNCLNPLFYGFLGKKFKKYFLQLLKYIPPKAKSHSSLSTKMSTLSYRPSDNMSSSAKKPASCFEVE
The experiment can be described thus: IP1 accumulation assay (IP1 G-protein assay), rat AT1aR. The settings on record: for Emax: read-out: Span (relative to hAngII). Here is the method: (§2) A secondary measure of G protein coupling efficacy was also performed. IP3 is generated by activation of phospholipase C by Gα-q. IP3 is degraded to IP1, which can be forced to accumulate in cells by blocking degradation with lithium chloride. Thus we measured accumulation of IP1 to determine ligand efficacy for G protein activation.
(§3) IP1 accumulation generated by human and rat angiotensin 2 type 1 receptor (human AT1R and rat AT1aR, respectively) was measured with IP-One Tb kits purchased from Cisbio and used per the manufacturer's instructions. Clonal stably transfected cell lines expressing human AT1TR or rat AT1aR were used for all experiments.
(§4) For assays, 4,000-8,000 cells were seeded per well in 384-well small-volume microplates “HiBase” small-volume plate in volumes of 20 uL and allowed to grow overnight at 37° C. in 5% CO2. Cell growth media was then replaced with stimulation buffer supplied by Cisbio containing 50 mM lithium chloride. […] For agonist detection, peptides were then further diluted in stimulation buffer to add peptide to the cells to reach final concentrations ranging from 100 uM to 1 pM. Following addition of peptides, cells were incubated at 37° C. in 5% CO2 for 30 minutes and then lysed with 4 uL of pre-mixed HTRF IP-One reagents diluted per manufacturer's instructions (Cisbio). Microplates were incubated for 60-90 minutes at room temperature and then time-resolved fluorescence intensities were measured using a PHERAstar Plus microplate reader from BMG Labtech. IP1 accumulation was measured as change in ratio of time-resolved fluorescent intensities measured at 665 nm and 620 nm.

The target of experiment [3] is T1, human AT1R. The experiment can be described thus: IP1 accumulation assay (IP1 G-protein assay), human AT1R. As to conditions: for Emax: read-out: Span (relative to hAngII). Here is the method:
as §2, §3, §4

Experiment [4] has as its target T2, rat AT1aR. The experiment can be described thus: beta-arrestin2 recruitment assay (PathHunter), rat AT1aR. As to conditions: for Emax: 1 h, read-out: Span (relative to hAngII). In a few lines:
as §1

Regarding `CNCC(=O)N[C@@H](CCCNC(=N)N)C(=O)N[C@H](C(=O)N[C@@H](Cc1ccc(O)cc1)C(=O)N1CCC[C@H]1C(=O)N[C@@H](Cc1c[nH]cn1)C(=O)N1CCC[C@H]1C(=O)N[C@H](C(=O)O)[C@@H](C)O)C(C)C` [SEQ ID NO: 7, Sar-Arg-Val-Tyr-Pro-His-Pro-Thr] (H-[Sar]RVYPHPT-OH), the values for the Emax in experiment [1] and in experiment [4] were under 101% and under 105%, respectively. In addition, the EC50 was over 3.2 nM in experiment [1] (read-out: EC50); over 3.16 nM in experiment [1] (read-out: pEC50 (converted)); over 0.6 nM in experiment [2] (read-out: EC50); over 0.631 nM in experiment [2] (read-out: pEC50 (converted)); over 10000 nM in experiment [3] (read-out: EC50); over 0.631 nM in experiment [3] (read-out: pEC50 (converted)). Further, the EC50 in experiment [4] (read-out: EC50) was over 3.2 nM; in experiment [4] (read-out: pEC50 (converted)) it was over 3.16 nM.
As to `CNCC(=O)N[C@@H](CCCNC(=N)N)C(=O)N[C@H](C(=O)N[C@@H](Cc1ccc(O)cc1)C(=O)NC1(C(=O)N[C@@H](Cc2c[nH]cn2)C(=O)N2CCC[C@H]2C(=O)N[C@@H](Cc2ccccc2)C(=O)O)CCCC1)C(C)C` [SEQ ID NO: 24, Sar-Arg-Val-Tyr-cyPen-His-Pro-Phe] (H-[Sar]RVY[Ac5c]HPF-OH), the Emax was over 101% in experiment [1], under 104% in experiment [2], over 103% in experiment [3] and under 105% in experiment [4]. For the same compound, the EC50 in experiment [1] (read-out: EC50) was over 3.2 nM; in experiment [1] (read-out: pEC50 (converted)), over 3.16 nM; in experiment [2] (read-out: EC50) it was over 0.6 nM; in experiment [2] (read-out: pEC50 (converted)), over 0.631 nM; in experiment [3] (read-out: EC50) it was under 1.3 nM; in experiment [3] (read-out: pEC50 (converted)) it was over 0.631 nM. In addition, the EC50 in experiment [4] (read-out: EC50) was over 3.2 nM; in experiment [4] (read-out: pEC50 (converted)), over 3.16 nM.
As for `CNCC(=O)N[C@@H](CCCNC(=N)N)C(=O)N[C@H](C(=O)N[C@@H](Cc1ccc(O)cc1)C(=O)NC1(C(=O)N[C@@H](Cc2c[nH]cn2)C(=O)N2CCC[C@H]2C(=O)N[C@H](C)C(=O)O)CCCCC1)C(C)C` [SEQ ID NO: 57, Sar-Arg-Val-Tyr-cyHex-His-Pro-D-Ala], the figures for the Emax in experiment [1] and in experiment [4] were under 101% and under 105%, respectively. Further, the EC50 in experiment [1] (read-out: EC50) is over 3.2 nM; in experiment [1] (read-out: pEC50 (converted)) it was over 3.16 nM; in experiment [4] (read-out: EC50), over 3.2 nM; in experiment [4] (read-out: pEC50 (converted)) it was over 3.16 nM. Besides, the “EC50 (nM)” value in experiment [2] and in experiment [3] was “Inactive” each time. The pEC50 result in experiment [2] and in experiment [3] was “Inactive” throughout.
As for `CNCC(=O)N[C@@H](CCCNC(=N)N)C(=O)N[C@H](C(=O)N[C@@H](Cc1ccc(O)cc1)C(=O)NC1(C(=O)N[C@@H](Cc2c[nH]cn2)C(=O)N2CCC[C@H]2C(=O)N[C@H](C)C(=O)O)CCCC1)C(C)C` [SEQ ID NO: 59, Sar-Arg-Val-Tyr-cyPen-His-Pro-D-Ala], the Emax was under 101% in experiment [1], under 104% in experiment [2] and under 105% in experiment [4]. The EC50 in experiment [1] (read-out: EC50) was over 3.2 nM; in experiment [1] (read-out: pEC50 (converted)), over 3.16 nM; in experiment [2] (read-out: EC50) it was over 0.6 nM; in experiment [2] (read-out: pEC50 (converted)) it was over 0.631 nM; in experiment [4] (read-out: EC50), over 3.2 nM; in experiment [4] (read-out: pEC50 (converted)) it was over 3.16 nM. Moreover, the “EC50 (nM)” value in experiment [3] is given as “Inactive”. Further, the pEC50 result in experiment [3] is reported as “Inactive”.
Consider `CNCC(=O)N[C@@H](CCCNC(=N)N)C(=O)N[C@H](C(=O)N[C@@H](Cc1ccc(O)cc1)C(=O)NC1(C(=O)N[C@@H](Cc2c[nH]cn2)C(=O)N2CCC[C@H]2C(=O)N2CCC[C@H]2C(=O)O)CCCCC1)C(C)C` [SEQ ID NO: 39, Sar-Arg-Val-Tyr-cyHex-His-Pro-Pro] (H-[Sar]RVY[Ac6c]HPP-OH), for which the Emax in experiment [1] is under 101%; in experiment [2] it was under 104%; in experiment [3] it was under 103%; in experiment [4], under 105%. Further, the EC50 was over 3.2 nM in experiment [1] (read-out: EC50); over 3.16 nM in experiment [1] (read-out: pEC50 (converted)); over 0.6 nM in experiment [2] (read-out: EC50); over 0.631 nM in experiment [2] (read-out: pEC50 (converted)); over 1.3 nM in experiment [3] (read-out: EC50); over 0.631 nM in experiment [3] (read-out: pEC50 (converted)). For the same compound, the EC50 is over 3.2 nM in experiment [4] (read-out: EC50) and over 3.16 nM in experiment [4] (read-out: pEC50 (converted)).
